Columns and labels:
VMAT2 [1] = target: VMAT2 (Mus musculus, UniProt Q8BRU6); experiment: In vitro autoradiography of mouse brain sections; type: binding
[2] = Uptake in diabetic mice (FIG. 6); type: in vivo
VMAT2 [3] = target: VMAT2 (Rattus norvegicus, UniProt Q01827); experiment: Competition for [3H](±)TBZ binding in rat striatal homogenates; design: The basal forebrain regions of rat and mouse brains were then dissected; from tissue; host or cells: rat striatum / basal forebrain homogenate; conditions: [3H](±)TBZ 1.0-1.5 nM, Kd […] used for calculation
Chain of VMAT2 (Rattus norvegicus, UniProt Q01827) (Q01827 whole entry): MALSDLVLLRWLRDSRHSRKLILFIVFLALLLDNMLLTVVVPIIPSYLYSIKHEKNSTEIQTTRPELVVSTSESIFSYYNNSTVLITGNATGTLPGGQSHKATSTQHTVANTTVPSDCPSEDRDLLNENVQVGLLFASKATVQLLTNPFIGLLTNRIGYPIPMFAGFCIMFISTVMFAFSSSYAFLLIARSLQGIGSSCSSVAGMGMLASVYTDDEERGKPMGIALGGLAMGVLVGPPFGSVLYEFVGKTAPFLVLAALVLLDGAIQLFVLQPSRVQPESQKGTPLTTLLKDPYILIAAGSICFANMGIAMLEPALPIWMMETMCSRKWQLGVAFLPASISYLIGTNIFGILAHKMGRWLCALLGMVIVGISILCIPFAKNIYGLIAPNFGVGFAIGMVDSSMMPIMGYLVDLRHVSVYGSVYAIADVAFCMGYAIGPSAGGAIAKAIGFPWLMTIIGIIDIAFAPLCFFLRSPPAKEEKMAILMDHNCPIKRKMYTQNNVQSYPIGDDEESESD

monoamine transporter = monoamine transporter (UniProt Q27963); conditions: membranes of chromaffin granules and brain tissue samples; cited from earlier work

Chain of VMAT2 (Mus musculus, UniProt Q8BRU6) (Q8BRU6 whole entry): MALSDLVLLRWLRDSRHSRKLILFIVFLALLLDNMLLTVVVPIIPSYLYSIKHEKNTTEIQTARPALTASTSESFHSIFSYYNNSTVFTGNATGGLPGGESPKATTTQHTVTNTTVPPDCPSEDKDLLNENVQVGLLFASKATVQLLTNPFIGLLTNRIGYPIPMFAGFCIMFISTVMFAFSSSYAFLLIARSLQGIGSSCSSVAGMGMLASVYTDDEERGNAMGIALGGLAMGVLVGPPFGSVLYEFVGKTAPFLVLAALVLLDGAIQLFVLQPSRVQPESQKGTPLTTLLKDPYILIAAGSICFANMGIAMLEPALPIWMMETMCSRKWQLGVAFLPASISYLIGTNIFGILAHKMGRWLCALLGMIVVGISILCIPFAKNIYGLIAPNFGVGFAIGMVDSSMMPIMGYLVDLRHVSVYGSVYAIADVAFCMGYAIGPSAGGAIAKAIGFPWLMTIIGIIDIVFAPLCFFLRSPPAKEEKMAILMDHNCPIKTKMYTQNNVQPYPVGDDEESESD

COc1cc2c(cc1OCCCF)CCN1CC(CC(C)C)C(O)CC21 (racemic) [[^18F]6b]
regional labeling in presence of 1 μM (±)TBZ (VMAT2 [1]): completely eliminated

COc1cc2c(cc1OCCCF)CCN1CC(CC(C)C)C(O)CC21 (stereo not drawn) [FP-(+)-DTBZ]
uptake in diabetic mice [2]: reduced | Ki (VMAT2 [3]): 0.1 nM

COc1cc2c(cc1OC)C1CC(O)C(CC(C)C)CN1CC2 (stereo not shown) [[^3H]dihydro-TBZ, 2-hydroxy-3-(2-methylpropyl)-9,10-dimethoxy-1,3,4,6,7,11b-hexahydro-2H-benzo[a]quinolizine]
Kd (monoamine transporter): 2 to 9 nM

— US8562949B2, “Radiolabeled dihydrotetrabenazine derivatives and their use as imaging agents” (The Trustees of the University of Pennsylvania, priority 2006, dated 2013)
